Values of other authors, collected in paper PMC7904743, “WIDOCK: a reactive docking protocol for virtual screening of covalent inhibitors” (Journal of Computer-Aided Molecular Design, 2021).
Like-named read-outs stand apart in the source and are kept apart here.

Experiments:
[1] = tested on: OTUB2; settings: OTUB2 protein labeling; experimental actives if % labeling higher than 50%; cited from earlier work
[2] = tested on: NUDT7; settings: protein labeling at 200 μM; experimental actives if % labeling higher than 50%; cited from earlier work
[3] = thiol reactivity, cited from earlier work
[4] = natural log of average kinetic rate constant
[5] = natural log of average rate constant

Compound	OTUB2 % labeling [1] [%]	NUDT7 % labeling [2] [%]	ln(avg k) [3, 4]	ln(avg k) [3, 5]
O=C(CCl)NNC(=O)c1ccc([N+](=O)[O-])cc1 [PCM-0102885, O=C(CCl)NNC(=O)c1ccc([N+](=O)[O-])cc1]	21	0	-16.970	-16.970
Cc1ccccc1NC(=O)CCl [PCM-0102887, Cc1ccccc1NC(=O)CCl]	0	0	-16.445	-16.445
O=C(CCl)N1CCN(c2cnccn2)CC1 [PCM-0102889, O=C(CCl)N1CCN(c2cnccn2)CC1]	0	0	-15.833	-15.833
O=C(CCl)Nc1ccc(Cl)nc1 [PCM-0102891, O=C(CCl)Nc1ccc(Cl)nc1]	0	25	-15.610	-15.610
CC(=O)Nc1ccc(NC(=O)CCl)c(C(F)(F)F)c1 [PCM-0102895, CC(=O)Nc1ccc(NC(=O)CCl)c(C(F)(F)F)c1]	0	0	-16.611	-16.611
O=C(CCl)NCC1CCS(=O)(=O)C1 (stereo not shown) [PCM-0102896, O=C(CCl)NCC1CCS(=O)(=O)C1]	23	0	-16.032	-16.032
CN(Cc1cc(C#N)ccc1F)C(=O)CCl [PCM-0102897, CN(Cc1cc(C#N)ccc1F)C(=O)CCl]	0	7	-15.579	-15.579
CN(Cc1ccc(Cl)s1)C(=O)CCl [PCM-0102898, CN(Cc1ccc(Cl)s1)C(=O)CCl]	0	29	-15.575	-15.575
CN(Cc1cnn(C)c1)C(=O)CCl [PCM-0102899, CN(Cc1cnn(C)c1)C(=O)CCl]	26	8	-15.596	-15.596
CCN(C(=O)CCl)c1ccc(F)cc1 [PCM-0102900, CCN(C(=O)CCl)c1ccc(F)cc1]	0	29	-15.837	-15.837
NS(=O)(=O)c1ccccc1NC(=O)CCl [PCM-0102903, NS(=O)(=O)c1ccccc1NC(=O)CCl]	14	29	-14.783	-14.783
COCC(=O)NC(=O)CCl [PCM-0102904, COCC(=O)NC(=O)CCl]	0	0	-18.669	-18.669
O=C(CCl)N1CCN(c2ccc(F)cc2)CC1 [PCM-0102905, O=C(CCl)N1CCN(c2ccc(F)cc2)CC1]	7	10	-15.525	-15.525
COC(=O)CNC(=O)CCl [PCM-0102906, COC(=O)CNC(=O)CCl]	6	0	-17.517	-17.517
O=C(CCl)NC(=O)Nc1ccc2c(c1)OCCCO2 [PCM-0102910, O=C(CCl)NC(=O)Nc1ccc2c(c1)OCCCO2]	0	0	-16.097	-16.097
COC(=O)c1cc(Cl)cc(Cl)c1NC(=O)CCl [PCM-0102912, COC(=O)c1cc(Cl)cc(Cl)c1NC(=O)CCl]	0	17	-17.100	-17.100
CC1CCC(NC(=O)CCl)CC1 (stereo not shown) [PCM-0102913, CC1CCC(NC(=O)CCl)CC1]	8	0	-16.529	-16.529
O=C(CCl)Nc1ccc(Cl)cc1Cl [PCM-0102914, O=C(CCl)Nc1ccc(Cl)cc1Cl]	14	22	-16.384	-16.384
O=C(CCl)Nc1ccc(N2CCCC2=O)cc1 [PCM-0102915, O=C(CCl)Nc1ccc(N2CCCC2=O)cc1]	49	0	-15.819	-15.819
CN(C(=O)CCl)C1(C#N)CCCCC1 [PCM-0102916, CN(C(=O)CCl)C1(C#N)CCCCC1]	0	0	-15.114	-15.114
CC(=O)c1oc2ccccc2c1NC(=O)CCl [PCM-0102918, CC(=O)c1oc2ccccc2c1NC(=O)CCl]	0	39	-15.842	-15.842
O=C(CCl)N1CCN(Cc2ccccc2)C1=O [PCM-0102919, O=C(CCl)N1CCN(Cc2ccccc2)C1=O]	10	0	-18.275	-18.275

Compound	OTUB2 % labeling [1] [%]	NUDT7 % labeling [2] [%]	ln(avg k) [3, 4]	ln(avg k) [3, 5]
O=C(CCl)N1CCC(c2nc3ccccc3o2)CC1 [PCM-0102920, O=C(CCl)N1CCC(c2nc3ccccc3o2)CC1]	0	0	-15.428	-15.428
CN1CCN(C(=O)CCl)CC1 [PCM-0102921, CN1CCN(C(=O)CCl)CC1]	0	0	-17.315	-17.315
CC(C)(C)OC(=O)N1CCCC(CNC(=O)CCl)C1 (stereo not shown) [PCM-0102923, CC(C)(C)OC(=O)N1CCCC(CNC(=O)CCl)C1]	20	0	-16.613	-16.613
O=C(CCl)Nc1ccc(Br)cc1F [PCM-0102926, O=C(CCl)Nc1ccc(Br)cc1F]	20	17	-16.464	-16.464
CC(C)c1nnc(NC(=O)CCl)s1 [PCM-0102928, CC(C)c1nnc(NC(=O)CCl)s1]	0	4	-15.769	-15.769
COc1ccc(C2=CCN(C(=O)CCl)CC2)cc1 [PCM-0102929, COc1ccc(C2=CCN(C(=O)CCl)CC2)cc1]	0	45	-16.042	-16.042
O=C(CCl)Nc1ccncc1 [PCM-0102930, O=C(CCl)Nc1ccncc1]	0	0	-16.813	-16.813
O=C(CCl)NC1CCN(C(=O)C2CCCCC2)CC1 [PCM-0102931, O=C(CCl)NC1CCN(C(=O)C2CCCCC2)CC1]	9	0	-16.253	-16.253
CC(=O)N1CCC(NC(=O)CCl)CC1 [PCM-0102932, CC(=O)N1CCC(NC(=O)CCl)CC1]	7	0	-16.417	-16.417
CC1CCCN(C(=O)C2CCN(C(=O)CCl)CC2)C1 (stereo not shown) [PCM-0102933, CC1CCCN(C(=O)C2CCN(C(=O)CCl)CC2)C1]	0	0	-15.328	-15.328
O=C(CCl)NC1(c2ccccc2)CCC1 [PCM-0102935, O=C(CCl)NC1(c2ccccc2)CCC1]	0	29	-16.140	-16.140
N#Cc1cccc(CNC(=O)CCl)c1 [PCM-0102936, N#Cc1cccc(CNC(=O)CCl)c1]	32	0	-16.667	-16.667
CCOC(=O)C1CCCCN1C(=O)CCl (stereo not shown) [PCM-0102937, CCOC(=O)C1CCCCN1C(=O)CCl]	13	0	-16.030	-16.030
COc1ccc(C2CCCN2C(=O)CCl)cc1 (stereo not shown) [PCM-0102938, COc1ccc(C2CCCN2C(=O)CCl)cc1]	0	100	-15.798	-15.798
CN(Cc1ccc(F)cc1)C(=O)CCl [PCM-0102939, CN(Cc1ccc(F)cc1)C(=O)CCl]	10	0	-16.214	-16.214
O=C(CCl)N1CCOC2CCCCC21 (stereo not shown) [PCM-0102940, O=C(CCl)N1CCOC2CCCCC21]	0	0	-15.696	-15.696
CC(C)N(C(=O)CCl)C1CCCCC1 [PCM-0102941, CC(C)N(C(=O)CCl)C1CCCCC1]	0	17	-16.528	-16.528
CN(CC12CC3CC(CC(C3)C1)C2)C(=O)CCl [PCM-0102942, CN(CC12CC3CC(CC(C3)C1)C2)C(=O)CCl]	10	26	-15.698	-15.698
Cc1nc(C2(NC(=O)CCl)CCCCCC2)no1 [PCM-0102944, Cc1nc(C2(NC(=O)CCl)CCCCCC2)no1]	0	0	-17.037	-17.037
CC1CCN(C(=O)CCl)CC1 [PCM-0102945, CC1CCN(C(=O)CCl)CC1]	0	0	-16.826	-16.826
N#Cc1ccc(CNC(=O)CCl)cc1 [PCM-0102946, N#Cc1ccc(CNC(=O)CCl)cc1]	35	0	-16.364	-16.364
